# Reference: patent publication US7842488B2, “Polynucleotides encoding a human 3-phosphoinositide- dependent protein kinase” (Medical Research Council, priority 1997, dated 2010)
# T1: GST-PDK1 (Homo sapiens, UniProt O15530)
# T1 construct: Residues 52-556 of PDK1 were expressed in human embryonic kidney 293 cells; made in house; host or cells: human embryonic kidney 293 cells (pEBG2T)
# T1 sequence (O15530 52-556): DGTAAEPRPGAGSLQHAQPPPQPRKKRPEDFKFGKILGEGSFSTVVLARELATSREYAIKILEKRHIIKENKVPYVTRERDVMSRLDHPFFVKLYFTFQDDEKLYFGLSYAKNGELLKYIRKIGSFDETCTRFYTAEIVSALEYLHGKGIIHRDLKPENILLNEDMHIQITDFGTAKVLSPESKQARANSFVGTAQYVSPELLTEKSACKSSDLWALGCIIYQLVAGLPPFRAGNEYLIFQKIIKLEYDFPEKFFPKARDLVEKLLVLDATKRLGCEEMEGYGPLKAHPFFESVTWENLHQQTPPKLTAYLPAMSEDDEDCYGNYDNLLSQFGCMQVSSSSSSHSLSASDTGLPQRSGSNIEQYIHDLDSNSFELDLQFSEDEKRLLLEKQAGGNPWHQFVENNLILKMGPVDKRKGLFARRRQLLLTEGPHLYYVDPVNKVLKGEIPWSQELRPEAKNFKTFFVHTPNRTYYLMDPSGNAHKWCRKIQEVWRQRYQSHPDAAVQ
# Experiments:
# [1] = tested on: PDK1; test: Phosphorylation of GST-PKBα by PDK1 with [γ32P]ATP; type: biochemical, rabbit; conditions: lipid 10 μM in PtdCho/PtdSer vesicles
# Method: Solutions were stored at 4° C. at concentrations 10-fold higher than those required in the assay and used within 2-4 days.
# Phosphorylation of GST-PKB ? by PDK1. The incubations were identical to the Stage 1 described above except that [γ^32P] ATP (200-400 cpm/pmol) was used instead of unlabelled ATP. The reactions were terminated by making the solution 1% (by mass) in SDS. […] The Coomassie blue-staining bands corresponding to GST-PKBα were excised and the ^32P-radioactivity associated with each band was quantified.
# [2] = target: T1, GST-PDK1; test: GST-PDK1 assay: activation and phosphorylation of GST-PKBα; type: biochemical; conditions: lipid 10 μM in PtdCho/PtdSer vesicles
# Method: (§1) FIG. 12. […] In panels A and C, the assays were terminated by making the incubations 1% (by vol) in TRITON X-100™ (see Ref 21), and the increase in specific activity of GST-PKBα was determined. In panels B and D, the reactions were terminated by making the solutions 1% in SDS, the samples were subjected to SDS/polyacrylamide gel electrophoresis, and the phosphorylation was assessed by autoradiography of the Coomassie blue-stained band corresponding to GST-PKBα.
# (§2) One unit of PDK1 activity was defined as that amount required to increase the basal activity of GST-PKBα by 1 unit of activity in one min.
# [3] = target: T2, GST-DSTPK61 (Drosophila melanogaster, UniProt Q9W0V1); test: GST-DSTPK61 assay: activation and phosphorylation of GST-PKBα; type: biochemical; conditions: lipid 10 μM in PtdCho/PtdSer vesicles
# T2 construct: residues 1-752 of DSTPK61 in E. coli as fusion proteins; made in house; host or cells: E. coli (pGEX-3X)
# T2 sequence (Q9W0V1 85-836 Q200H/Q201E/Q317A/G443R): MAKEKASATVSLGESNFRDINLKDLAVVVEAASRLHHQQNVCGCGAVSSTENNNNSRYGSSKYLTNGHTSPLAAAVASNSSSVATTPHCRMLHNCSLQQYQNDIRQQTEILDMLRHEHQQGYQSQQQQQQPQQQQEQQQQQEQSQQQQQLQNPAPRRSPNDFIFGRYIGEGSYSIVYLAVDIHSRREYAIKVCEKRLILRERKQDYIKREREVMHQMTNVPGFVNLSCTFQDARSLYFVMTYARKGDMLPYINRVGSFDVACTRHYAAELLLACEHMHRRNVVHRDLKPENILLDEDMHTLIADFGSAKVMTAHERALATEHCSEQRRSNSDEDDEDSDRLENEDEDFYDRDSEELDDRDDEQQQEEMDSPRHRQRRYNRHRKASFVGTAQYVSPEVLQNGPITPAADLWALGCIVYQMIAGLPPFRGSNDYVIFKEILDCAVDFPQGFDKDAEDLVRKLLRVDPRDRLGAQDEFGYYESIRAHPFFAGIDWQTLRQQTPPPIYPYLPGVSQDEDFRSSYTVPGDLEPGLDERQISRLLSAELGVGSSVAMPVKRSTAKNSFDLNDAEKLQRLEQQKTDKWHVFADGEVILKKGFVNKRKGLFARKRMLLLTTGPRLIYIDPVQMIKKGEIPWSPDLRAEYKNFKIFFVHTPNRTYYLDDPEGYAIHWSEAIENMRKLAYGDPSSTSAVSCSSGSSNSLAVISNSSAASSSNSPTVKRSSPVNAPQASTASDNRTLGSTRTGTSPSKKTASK
# Method: as §1, §2
# [4] = tested on: PDK1; test: PDK1 assay: activation of GST-PKBα by purified PDK1 with phospholipid vesicles; type: biochemical, rabbit; conditions: lipid 10 μM in vesicles of 100 μM PtdCho, 100 μM PtdSer, 30 min at 30° C.
# Method: Assay of PDK1. The assay was carried out in two stages; in the first, GST-PKBα was incubated with PDK1 in the presence of MgATP and phospholipid vesicles to permit activation of GST-PKBα.
# After 10 min at 30° C., the reactions were terminated by spotting the reaction mixture on to p81 phosphocellulose paper. The papers were washed in phosphoric acid and analysed as described previously. […] The basal GST-PKBα activity is the activity measured in the absence of PDK1.
# [5] = tested on: HA-PKBα; test: HA-PKBα activity in transfected 293 cells; type: cell-based, human
# Method: FIG. 14. PKBα is activated by cotransfection with PDK1 in 293 cells. (A) 293 cells were transiently transfected with DNA constructs expressing either HA-PKBα or both HA-PKBα and Myc-PDK1. The cells were then stimulated for 10 min with or without 50 ng/ml IGF1, the HA-PKBα immunoprecipitated from the lysates and assayed. The results are expressed relative to the specific activity of wild type HA-PKBα in unstimulated 293 cells ([…]). No PKBα activity was detected in mock transfections in which the cells were transfected with PCMV5 vector alone (data not shown). (B) 6 μg of protein from each lysate was electrophoresed on a 10% SDS/polyacrylamide gel and immunoblotted using either a monoclonal HA-antibody to detect HA-PKBα or a monoclonal Myc-antibody to detect Myc-PDK1. The molecular mass markers are glycogen phosphorylase (97 kDa), bovine serum albumin (67 kDa) and ovalbumin (43 kDa).
# Transfection of 293 cells with HA-tagged PBKα and Myc-PDK1. Human embryonic kidney 293 cells were cultured on 10 cm diameter dishes and transfected with 2 μg/ml pCMV5 DNA constructs encoding for HA-PKBα or HA-PKBα plus Myc-PDK1 [20]. After 24 h the cells were deprived of serum for a further 16 h and then stimulated for 10 min with either […] IGF1 or Buffer. The cells were lysed in 1.0 ml of ice-cold Buffer A, the lysate centrifuged at 4° C. for 10 min at 13,000×g and HA-PKBα immunoprecipitated from aliquots of the supernatant (10 μg protein) and assayed for PKBα with the peptide RPRAATF (SEQ ID NO: 9) as described previously.
# [6] = tested on: HA-PKBα; test: 32P-labelling of transfected 293 cells: phosphorylation sites of HA-PKBα; type: cell-based, human; conditions: unstimulated 293 cells
# Method: FIG. 15. Overexpression of PDK1 in cells induces phosphorylation of PKBα at Thr308. 293 cells transiently transfected with either wild type HA-PKBα (panels A and C) or HA-PKBα and Myc-PDK1 (panels B and D) were incubated with ^32P-orthophosphate, then treated for 10 min without (panels A and B) or with (panels C and D) 50 ng/ml IGF1. The ^32P-labelled HA-PKBα was immunoprecipitated from the lysates, treated with 4-vinylpyridine, and electrophoresed on 1 10% polyacrylamide gel. The HA-PKBα was excised from the gel, digested with trypsin and chromatographed on a C18 column (see legend to FIG. 13) to resolve the four major phosphopeptides which are phosphorylated at Ser-124, Ser473, Thr308 and Thr450 respectively. The identity of each phosphopeptide was established by phospho-amino acid analysis and solid phase sequencing. Similar results were obtained in two separate experiments for (panels A and C), and in three separate experiments (panels B and D).
# ^32P-labelling of 293 cells transfected with HA-PKBα or Myc-PDK1. This was carried out essentially as described previously. Briefly, 293 cells were transfected with HA-PKBα, or with HA-PKBα plus Myc-PDK1, washed with phosphate free DMEM, incubated for 4 h with [^32P]-orthophosphate (1 mCi/ml), then stimulated with IGF1 (50 ng/ml) for 5 min. The cells were lysed, and the HA-PKBα immunoprecipitated (using 10 μg of 12CAS antibody per 10 cm dish of cells) or the Myc-PDK1 immunoprecipitated (using 10 μg of 9E10 antibody per 10 cm dish of cells). The immunoprecipitated protein was alkylated with 4-vinylpyridine, subjected to SDS/polyacrylamide gel electrophoresis, digested with trypsin and analysed by chromatography on a C18 column (Alessi et al (1996) EMBO J. 15, 6541-6551).
molecule,measurement,setting,value
"CCCCCCCCCCCCCCCC(=O)OC[C@H](COP(=O)(O)OC1C(O)C(O)C(O)C(OP(=O)(O)O)C1O)OC(=O)CCCCCCCCCCCCCCC (stereo partly shown) [Lipid 11, sn-1,2 di-palmitoyl PtdIns-3P]",phosphorylation of GST-PKBα by PDK1 (in words),[1],did not activate PDK1 or induce the phosphorylation
same,activation and phosphorylation of GST-PKBα by GST-PDK1 (in words),[2],no activation or phosphorylation
same,activation and phosphorylation of GST-PKBα by GST-DSTPK61 (in words),[3],no activation or phosphorylation
same,activation of PDK1 (in words),[4],no significant activation
same,activation of PDK1 (in words),[4]; listed as PtdIns(3)P,did not activate PDK1 at all
same,activation of PDK1 (in words),[4]; listed as lipid 11,did not activate PDK1
"Myc-D223A-PDK1: catalytically inactive mutant of PDK1, Myc-tagged (protein, left off: small tags and cut ends) MARTTSQLYDAVPIQSSVVLCSCPSPSMVRTQTESSTPPGIPGGSRQGPAMDGTAAEPRPGAGSLQHAQPPPQPRKKRPEDFKFGKILGEGSFSTVVLARELATSREYAIKILEKRHIIKENKVPYVTRERDVMSRLDHPFFVKLYFTFQDDEKLYFGLSYAKNGELLKYIRKIGSFDETCTRFYTAEIVSALEYLHGKGIIHRDLKPENILLNEDMHIQITAFGTAKVLSPESKQARANSFVGTAQYVSPELLTEKSACKSSDLWALGCIIYQLVAGLPPFRAGNEYLIFQKIIKLEYDFPEKFFPKARDLVEKLLVLDATKRLGCEEMEGYGPLKAHPFFESVTWENLHQQTPPKLTAYLPAMSEDDEDCYGNYDNLLSQFGCMQVSSSSSSHSLSASDTGLPQRSGSNIEQYIHDLDSNSFELDLQFSEDEKRLLLEKQAGGNPWHQFVENNLILKMGPVDKRKGLFARRRQLLLTEGPHLYYVDPVNKVLKGEIPWSQELRPEAKNFKTFFVHTPNRTYYLMDPSGNAHKWCRKIQEVWRQRYQSHPDAAVQ",activation of HA-PKBα on cotransfection (in words),[5]; 293 cells,not activated significantly
"Myc-PDK1: Myc-epitope tagged PDK1 transfected into 293 cells (protein, left off: small tags and cut ends) DGTAAEPRPGAGSLQHAQPPPQPRKKRPEDFKFGKILGEGSFSTVVLARELATSREYAIKILEKRHIIKENKVPYVTRERDVMSRLDHPFFVKLYFTFQDDEKLYFGLSYAKNGELLKYIRKIGSFDETCTRFYTAEIVSALEYLHGKGIIHRDLKPENILLNEDMHIQITDFGTAKVLSPESKQARANSFVGTAQYVSPELLTEKSACKSSDLWALGCIIYQLVAGLPPFRAGNEYLIFQKIIKLEYDFPEKFFPKARDLVEKLLVLDATKRLGCEEMEGYGPLKAHPFFESVTWENLHQQTPPKLTAYLPAMSEDDEDCYGNYDNLLSQFGCMQVSSSSSSHSLSASDTGLPQRSGSNIEQYIHDLDSNSFELDLQFSEDEKRLLLEKQAGGNPWHQFVENNLILKMGPVDKRKGLFARRRQLLLTEGPHLYYVDPVNKVLKGEIPWSQELRPEAKNFKTFFVHTPNRTYYLMDPSGNAHKWCRKIQEVWRQRYQSHPDAAVQ",phosphorylation of HA-PKBα at Thr308 relative to IGF1-stimulated cells transfected with HA-PKBα alone,[6]; cotransfection,70%
same,phosphorylation of HA-PKBα at Ser473 on cotransfection (in words),[6],did not induce phosphorylation of HA-PKBα at Ser473
same,fold increase of HA-PKBα activity on cotransfection,[5]; unstimulated 293 cells,20 fold
